Assay results from patent US5232923A, “Catechol derivatives and pharmaceutical preparations containing same” (Mitsui Toatsu Chemicals, Incorporated, priority 1988, dated 1993).
Read-outs that look alike come from different tables or passages of the source.

Legend:
[1] = system: production and secretion of NGF in mouse brain astroglial cells; experiment: Promoting activity for the production and secretion of NGF in mouse brain astroglial cells (ELISA of medium after 24 h); type: cell-based; settings: for fold induction at 400 µM / fold induction at 200 µM: Mus musculus, 24 h; for NGF Concentration / NGF Astroglial Cell Concentration: 24 hours; for NGF Astroglial Cell Concentration: control 31.8
Procedure: Promoting activity for the production and secretion of NGF in mouse brain astroglial cells
The experiment was performed by inducing astroglial cells from the mouse forebrain to a culture system according to the procedures of S. Furukawa et al. which is described in Biochem. Biophys. Res. Commun., 136, 57-63 (1986).
Forebrains of 8-days old mice were dissected out and cut into small pieces. The pieces were washed with calcium- and magnesium-free phosphate-bufferedsaline (hereinafter abbreviated as PBS), treated with 0.25% trypsin containing PBS at 37° C. for 30 minutes and triturated with a Pasteur pipet to give a suspension. Cells and cell clumps were recovered by centrifugation at 200 xg for 5 minutes. They were cultured in Dulbecco modified Eagle's medium (a product of Gibco Co. hereinafter abbreviated as DMEM) containing 10% fetal calf serum, 50 μ units/ml of penicillin, and 50 μg/ml of streptomycin, for 10 to 14 days with medium changes every 3 days. After completing confluency, the cells were dissociated by trypsin treatment and recultured in new culture flasks. This procedure was repeated further twice and more. The culture became a uniform cell cluster. The cell cluster for use in this invention can be stained not less than 97% in accordance with the PAP staining method (peroxidase/[…] staining method) using anti-human glial fibrillar acidic protein (GFAP) rabbit antiserum. The cells will hereinafter be referred to as astroglial cells.
Astroglial cells were innoculated in 24-well plates having a well surface area of 2.1 cm^2 (a product of Falcon Co.) at a cell density of about 3×10^4 cells/well and cultured for 3 days in DMEM medium supplemented with 10% of fetal calf serum. After completing confluency about ([…]), the medium was changed to DMEM medium (0.5 ml/well) supplemented with 0.5% of bovine serum albumin (fraction V) and cultured for 3 days. The culture was further continued with medium changes every 3 days. After cells were practically synchronized in the quiscent stage, the medium was changed to 0.5 ml of the same medium and containing a prescribed concentration of test sample as illustrated in the Tables. NGF in the medium after cultivating for 24 hours was determined by the ELISA as mentioned above. Data are expressed as fold increase in NGF content over that in the absence of the test sample. The lower detection limit of the ELISA is 0.25 pg/ml and the NGF content of control medium was normally 1-10 pg/0.5 ml/well. Data are presented as the mean of four determinations. The results are illustrated in Tables 1-5.

[2] = system: production and secretion of NGF in mouse L-M cells; experiment: Promoting activity for the production and secretion of NGF in mouse L-M cells (ELISA of medium after 24 h); type: cell-based; settings: L-M cells; for fold induction at 200 µM / fold induction at 400 µM: Mus musculus, 24 h, fold increase over control (1.00); for fold induction at 200 µM / NGF Concentration: sample concentration 0.2 mM; for fold induction at 200 µM: read-out: NGF Increase Ratio; for NGF Concentration / NGF L-M Cell Concentration: 24 hours; for NGF Concentration: mean of four determinations; for fold induction at 400 µM / NGF L-M Cell Concentration: Table 5, 0.4 mM; for fold induction at 400 µM: read-out: NGF L-M Cell Increase Ratio; for NGF L-M Cell Concentration: control 0.87
Procedure: Promoting activity for the production and secretion of NGF in mouse L-M cells
The medium was cultured for 3 days at a temperature of 37° C. […] The sample of the derivative tested is contained in the medium at a prescribed concentration as illustrated in the Tables. […] Data are expressed as fold increase in NGF content of the medium over that cultivated in the absence of the derivative to be tested. […] Data are presented as the mean of four determinations. The results are illustrated in Tables 1-5.

[3] = Table 4, sample concentration 0.4 mM, fold increase over control, read-out: NGF Increase Ratio
[4] = Table 4, sample concentration 0.4 mM
[5] = Table 5, 0.4 mM, fold increase over control (1.00), read-out: NGF Astroglial Cell Increase Ratio
[6] = Table 4, sample concentration 0.2 mM, fold increase over control, read-out: NGF Increase Ratio
[7] = Table 4, sample concentration 0.2 mM
[8] = Table 3, sample concentration 0.4 mM, fold increase over control (1.00), read-out: NGF Increase Ratio
[9] = Table 3, sample concentration 0.4 mM, control 42.3

In the case of `CCNC(=O)CCc1ccc(OC(C)=O)c(OC(C)=O)c1` [Compound 74], the fold induction at 400 µM [1, 3] is reported as 6.53, the “NGF Concentration” value [1, 4] is reported as 282.2 ng/well and the fold induction at 200 µM ([2]; Table 2) is reported as 5.85. For the same compound, the “NGF Concentration” value ([2]; Table 2, control 0.34) was 1.93 ng/well.
With `O=C(CCc1ccc(O)c(O)c1)N1CCN(Cc2ccccc2)CC1` [Compound 101, N-Benzyl-N'-[3-(3,4-dihydroxyphenyl)propionyl]piperazine] the fold induction at 400 µM [1, 5] was 9.6, the “NGF Astroglial Cell Concentration” value ([1]; Table 5, 0.4 mM) was 305.3 ng/well and the fold induction at 400 µM [2] was 5.2. The “NGF L-M Cell Concentration” value [2] was 4.52 ng/well.
In the case of `CN(C)C(=O)CCc1ccc(O)c(O)c1` [Compound 72], the fold induction at 200 µM [1, 6] is reported as 6.5, the “NGF Concentration” value [1, 7] is reported as 280.6 ng/well and the fold induction at 200 µM ([2]; Table 2) is reported as 5.91. The “NGF Concentration” value ([2]; Table 2, control 0.34) was 1.94 ng/well.
In the case of `CCNC(=O)Cc1ccc(OC(C)=O)c(OC(C)=O)c1` [Compound 76], the fold induction at 400 µM [1, 3] is reported as 4.84, the “NGF Concentration” value [1, 4] is reported as 209.1 ng/well and the fold induction at 200 µM ([2]; Table 2) is reported as 5.47. For the same compound, the “NGF Concentration” value ([2]; Table 2, control 0.34) was 1.88 ng/well.
For `CCNC(=O)CCc1ccc(O)c(O)c1` [Compound 60], the fold induction at 200 µM [1, 6] was 6.95, the “NGF Concentration” value [1, 7] was 300.4 ng/well and the fold induction at 200 µM ([2]; Table 2) was 5.41. For the same compound, the “NGF Concentration” value ([2]; Table 2, control 0.34) was 1.84 ng/well.
`COC(=O)[C@@H]1CCCN1C(=O)CCc1ccc(O)c(O)c1` [Compound 103, N-[3-(3,4-dihydroxyphenyl)propionyl]-L-proline methyl ester] was tested, and the fold induction at 400 µM [1, 5] was 6.3, the “NGF Astroglial Cell Concentration” value ([1]; Table 5, 0.4 mM) was 200.3 ng/well and the fold induction at 400 µM [2] was 4.3. The “NGF L-M Cell Concentration” value [2] was 3.74 ng/well.
`NC(=O)CCc1ccc(O)c(O)c1` [Compound 58] was tested, and the fold induction at 200 µM [1, 6] was 5.32, the “NGF Concentration” value [1, 7] was 230.0 ng/well and the fold induction at 200 µM ([2]; Table 2) was 5.53. The “NGF Concentration” value ([2]; Table 2, control 0.34) was 1.88 ng/well.
For `O=C(CCc1ccc(O)c(O)c1)N1CCCCC1` [Compound 97, N-[3-(3,4-Dihydroxyphenyl)propionyl]piperidine], the fold induction at 400 µM [1, 5] was 13.7, the “NGF Astroglial Cell Concentration” value ([1]; Table 5, 0.4 mM) was 435.7 ng/well and the fold induction at 400 µM [2] was 6.2. For the same compound, the “NGF L-M Cell Concentration” value [2] was 5.39 ng/well.
For `CCOC(=O)CCc1ccc(O)c(O)c1` [Compound 35], the fold induction at 200 µM [1, 6] was 4.63, the “NGF Concentration” value [1, 7] was 200.1 ng/well and the fold induction at 200 µM ([2]; Table 2) was 5.82. The “NGF Concentration” value ([2]; Table 2, control 0.34) was 1.98 ng/well.
For `CC(=O)N(C)CCc1ccc(O)c(O)c1` [Compound 10], the fold induction at 400 µM [1, 8] was 4.85, the “NGF Concentration” value [1, 9] was 205.2 ng/well and the fold induction at 200 µM ([2]; Table 1) was 9.7. For the same compound, the “NGF Concentration” value ([2]; Table 1, control 0.33) was 3.20 ng/well.
With `CCCCNC(=O)CCc1ccc(O)c(O)c1` [Compound 82] the fold induction at 200 µM [1, 6] was 8.35 and the “NGF Concentration” value [1, 7] was 360.9 ng/well.
With `CCCC(=O)NCCc1ccc(OC(C)=O)c(OC(C)=O)c1` [Compound 15] the fold induction at 200 µM ([1]; Table 3, sample concentration 0.2 mM, fold increase over control (1.00), read-out: NGF Increase Ratio) was 3.74, the “NGF Concentration” value ([1]; Table 3, sample concentration 0.2 mM, control 42.3) was 158.2 ng/well and the fold induction at 200 µM ([2]; Table 1) was 8.94. The “NGF Concentration” value ([2]; Table 1, control 0.33) was 2.95 ng/well.
With `CC(=O)Oc1ccc(CCC(N)=O)cc1OC(C)=O` [Compound 73] the fold induction at 400 µM [1, 3] was 7.65, the “NGF Concentration” value [1, 4] was 330.6 ng/well and the fold induction at 200 µM ([2]; Table 2) was 5.68. The “NGF Concentration” value ([2]; Table 2, control 0.34) was 2.01 ng/well.
`CC(=O)NCCc1ccc(OC(C)=O)c(OC(C)=O)c1` [Compound 13, N-Acetyl-3,4-diacetoxyphenethylamine] was tested, and the fold induction at 400 µM [1, 8] was 4.7, the “NGF Concentration” value [1, 9] was 198.8 ng/well and the fold induction at 200 µM ([2]; Table 1) was 12.2. The “NGF Concentration” value ([2]; Table 1, control 0.33) was 4.03 ng/well.
In the case of `CCCCCCNC(=O)CCc1ccc(O)c(O)c1` [Compound 87, N-n-Hexyl-3,4-dihydroxyphenylpropionamide], the fold induction at 400 µM [1, 5] is reported as 12, the “NGF Astroglial Cell Concentration” value ([1]; Table 5, 0.4 mM) is reported as 195.6 ng/well and the fold induction at 400 µM [2] is reported as 5.8. For the same compound, the “NGF L-M Cell Concentration” value [2] was 5.05 ng/well.
